Laboratory results: PubChem BioAssay AID1963974 (Molecular Pharmacology Branch, DTP, NCI, 2024)

Tested on: 648629-189-R-J1-PDC spheroids with HUVEC/MSC, viability
Assay: Anticancer human tumor 648629-189-R-J1-PDC patient-derived bladder carcinoma cell line growth inhibition [PI3K]
Conditions: for viability, T/C: stronger effect = lower value
Summary of the method: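 Complex 3D spheroids (cancer cells + endothelial HUVEC + mesenchymal stem cells); drug pairs of targeted agent x inavolisib/alpelisib/duvelisib/copanlisib; half-log series from ~Cmax, max 10 microM if Cmax unknown; endpoint viability.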

[1] = curve of first compound, second compound 0.0316 µM
[2] = curve of first compound, second compound 0.1 µM
[3] = curve of first compound, second compound 0.316 µM
[4] = curve of first compound, second compound 1 µM
[5] = second compound 0.0316 µM, first compound 0.0316 µM
[6] = second compound 0.0316 µM, first compound 0.1 µM
[7] = second compound 0.0316 µM, first compound 0.316 µM
[8] = second compound 0.0316 µM, first compound 1 µM
[9] = second compound 0.0316 µM, first compound 3.16 µM
[10] = second compound 0.0316 µM, first compound 10 µM
[11] = second compound 0.1 µM, first compound 0.0316 µM
[12] = second compound 0.1 µM, first compound 0.1 µM
[13] = second compound 0.1 µM, first compound 0.316 µM
[14] = second compound 0.1 µM, first compound 1 µM
[15] = second compound 0.1 µM, first compound 3.16 µM
[16] = second compound 0.1 µM, first compound 10 µM
[17] = second compound 0.316 µM, first compound 0.0316 µM
[18] = second compound 0.316 µM, first compound 0.1 µM
[19] = second compound 0.316 µM, first compound 0.316 µM
[20] = second compound 0.316 µM, first compound 1 µM
[21] = second compound 0.316 µM, first compound 3.16 µM
[22] = second compound 0.316 µM, first compound 10 µM
[23] = second compound 1 µM, first compound 0.0316 µM
[24] = second compound 1 µM, first compound 0.1 µM
[25] = second compound 1 µM, first compound 0.316 µM
[26] = second compound 1 µM, first compound 1 µM
[27] = second compound 1 µM, first compound 3.16 µM
[28] = second compound 1 µM, first compound 10 µM
[29] = curve of first compound, second compound 3.16 µM
[30] = curve of first compound, second compound 10 µM
[31] = second compound 3.16 µM, first compound 0.0316 µM
[32] = second compound 3.16 µM, first compound 0.1 µM
[33] = second compound 3.16 µM, first compound 0.316 µM
[34] = second compound 3.16 µM, first compound 1 µM
[35] = second compound 3.16 µM, first compound 3.16 µM
[36] = second compound 3.16 µM, first compound 10 µM
[37] = second compound 10 µM, first compound 0.0316 µM
[38] = second compound 10 µM, first compound 0.1 µM
[39] = second compound 10 µM, first compound 0.316 µM
[40] = second compound 10 µM, first compound 1 µM
[41] = second compound 10 µM, first compound 3.16 µM
[42] = second compound 10 µM, first compound 10 µM
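Also: spheroids exposed to agents for seven days before reading.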
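For viability, T/C in this document: percent of vehicle control luminescence where 100% = DMSO treated spheroids.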

Cn1nccc1Nc1nccc(-c2ccn(C(CO)c3ccc(Cl)c(F)c3)c(=O)c2)n1 (stereo not drawn) + CC(Nc1ccc2c(c1)OCCn1cc(N3C(=O)OCC3C(F)F)nc1-2)C(N)=O
IC50 (curve of first compound, second compound 0.00316 µM): > 10 µM | IC50 (curve of first compound, second compound 0.01 µM): > 10 µM | IC50 [1]: > 10 µM | IC50 [2]: > 10 µM | IC50 [3]: > 10 µM | IC50 [4]: > 10 µM | viability, T/C (second compound 0.00316 µM, first compound 0.0316 µM): 103% | viability, T/C (second compound 0.00316 µM, first compound 0.1 µM): 105% | viability, T/C (second compound 0.00316 µM, first compound 0.316 µM): 111% | viability, T/C (second compound 0.00316 µM, first compound 1 µM): 109% | viability, T/C (second compound 0.00316 µM, first compound 3.16 µM): 109% | viability, T/C (second compound 0.00316 µM, first compound 10 µM): 79.3% | viability, T/C (second compound 0.01 µM, first compound 0.0316 µM): 111% | viability, T/C (second compound 0.01 µM, first compound 0.1 µM): 93% | viability, T/C (second compound 0.01 µM, first compound 0.316 µM): 102% | viability, T/C (second compound 0.01 µM, first compound 1 µM): 108% | viability, T/C (second compound 0.01 µM, first compound 3.16 µM): 105% | viability, T/C (second compound 0.01 µM, first compound 10 µM): 81.2% | viability, T/C [5]: 107% | viability, T/C [6]: 101% | viability, T/C [7]: 97.4% | viability, T/C [8]: 103% | viability, T/C [9]: 106% | viability, T/C [10]: 79.1% | viability, T/C [11]: 97.2% | viability, T/C [12]: 97.5% | viability, T/C [13]: 84.9% | viability, T/C [14]: 103% | viability, T/C [15]: 85.1% | viability, T/C [16]: 73% | viability, T/C [17]: 82.1% | viability, T/C [18]: 86% | viability, T/C [19]: 82.7% | viability, T/C [20]: 99.8% | viability, T/C [21]: 78.3% | viability, T/C [22]: 68.8% | viability, T/C [23]: 66.2% | viability, T/C [24]: 67% | viability, T/C [25]: 70.3% | viability, T/C [26]: 76.3% | viability, T/C [27]: 73% | viability, T/C [28]: 62.3%

Cc1nc(NC(=O)N2CCCC2C(N)=O)sc1-c1ccnc(C(C)(C)C(F)(F)F)c1 (stereo not drawn)
viability, T/C (compound 0.0316 µM): 103% [middle of 8 runs] | viability, T/C (compound 0.1 µM): 101% [middle of 8 runs] | viability, T/C (compound 0.316 µM): 95.9% [middle of 8 runs] | viability, T/C (compound 1 µM): 77.4% [middle of 8 runs] | viability, T/C (compound 3.16 µM): 60% [middle of 8 runs] | viability, T/C (compound 10 µM): 37.3% [middle of 8 runs] | IC50 (compound alone, run of 04/24/2023): 5.36 µM [middle of 8 runs]

CC(Cn1ccc(-c2ccc(C#N)c(Cl)c2)n1)NC(=O)c1cc(C(C)O)[nH]n1 (stereo not drawn) + CC(Nc1ncnc2nc[nH]c12)c1cc2cccc(Cl)c2c(=O)n1-c1ccccc1
IC50 [1]: > 10 µM | IC50 [2]: > 10 µM | IC50 [3]: > 10 µM | IC50 [4]: > 10 µM | IC50 [29]: > 10 µM | IC50 [30]: > 10 µM | viability, T/C [5]: 99.4% | viability, T/C [6]: 91.1% | viability, T/C [7]: 116% | viability, T/C [8]: 94% | viability, T/C [9]: 105% | viability, T/C [10]: 84.5% | viability, T/C [11]: 99% | viability, T/C [12]: 89.3% | viability, T/C [13]: 115% | viability, T/C [14]: 108% | viability, T/C [15]: 108% | viability, T/C [16]: 80.5% | viability, T/C [17]: 97.9% | viability, T/C [18]: 99% | viability, T/C [19]: 95.2% | viability, T/C [20]: 119% | viability, T/C [21]: 99.4% | viability, T/C [22]: 87.3% | viability, T/C [23]: 107% | viability, T/C [24]: 93.8% | viability, T/C [25]: 106% | viability, T/C [26]: 113% | viability, T/C [27]: 90.8% | viability, T/C [28]: 80% | viability, T/C [31]: 92.2% | viability, T/C [32]: 96% | viability, T/C [33]: 94.7% | viability, T/C [34]: 91.3% | viability, T/C [35]: 92.4% | viability, T/C [36]: 69.5% | viability, T/C [37]: 78.4% | viability, T/C [38]: 93.3% | viability, T/C [39]: 86.8% | viability, T/C [40]: 79.7% | viability, T/C [41]: 89.7% | viability, T/C [42]: 69%

C=CC(=O)N1CCN(c2nc(=O)n(-c3c(C)ccnc3C(C)C)c3nc(-c4c(O)cccc4F)c(F)cc23)C(C)C1 (stereo not drawn) + CC(Nc1ncnc2nc[nH]c12)c1cc2cccc(Cl)c2c(=O)n1-c1ccccc1
IC50 [1]: > 10 µM | IC50 [2]: > 10 µM | IC50 [3]: > 10 µM | IC50 [4]: > 10 µM | IC50 [29]: > 10 µM | IC50 [30]: > 10 µM | viability, T/C [5]: 106% | viability, T/C [6]: 95.3% | viability, T/C [7]: 107% | viability, T/C [8]: 109% | viability, T/C [9]: 103% | viability, T/C [10]: 96.9% | viability, T/C [11]: 102% | viability, T/C [12]: 101% | viability, T/C [13]: 125% | viability, T/C [14]: 104% | viability, T/C [15]: 108% | viability, T/C [16]: 87.5% | viability, T/C [17]: 95.4% | viability, T/C [18]: 115% | viability, T/C [19]: 112% | viability, T/C [20]: 103% | viability, T/C [21]: 112% | viability, T/C [22]: 103% | viability, T/C [23]: 120% | viability, T/C [24]: 99.3% | viability, T/C [25]: 107% | viability, T/C [26]: 107% | viability, T/C [27]: 101% | viability, T/C [28]: 92.1% | viability, T/C [31]: 103% | viability, T/C [32]: 92.1% | viability, T/C [33]: 104% | viability, T/C [34]: 101% | viability, T/C [35]: 106% | viability, T/C [36]: 98.8% | viability, T/C [37]: 94.2% | viability, T/C [38]: 86.9% | viability, T/C [39]: 96.4% | viability, T/C [40]: 95.6% | viability, T/C [41]: 89.8% | viability, T/C [42]: 88.3%
